Measurements published in ChEMBL document CHEMBL1159340, “Antibacterial diterpenes from Calceolaria pinifolia” (J Nat Prod, 2003).
Converted amounts (≈) assume the structure as drawn.

Legend:
Bacillus subtilis [1] = test: Antimicrobial activity against Bacillus subtilis 327 after 18 hrs by microbroth dilution method; type: functional
Staphylococcus aureus [2] = test: Antimicrobial activity against methicillin-resistant Staphylococcus aureus 310 after 18 hrs by microbroth dilution method; type: functional
Escherichia coli = test: Antimicrobial activity against Escherichia coli imp 389 after 18 hrs by microbroth dilution method; type: functional
Staphylococcus aureus [3] = test: Antimicrobial activity against methicillin-susceptible Staphylococcus aureus 375 after 18 hrs by microbroth dilution method; type: functional
[4] = Toxicity in human RBC assessed as hemolysis at 8 ug/ml after 2 hrs; type: cell-based, Erythrocyte; conditions: red blood cells (RBC), read-out: Activity
[5] = Toxicity in human RBC assessed as hemolysis at 0.5 ug/ml after 2 hrs; type: cell-based, Erythrocyte; conditions: red blood cells (RBC), read-out: Activity
[6] = Toxicity in human RBC assessed as hemolysis at 4 ug/ml after 2 hrs; type: cell-based, Erythrocyte; conditions: red blood cells (RBC), read-out: Activity
[7] = Toxicity in human RBC assessed as hemolysis at 1 ug/ml after 2 hrs; type: cell-based, Erythrocyte; conditions: red blood cells (RBC), read-out: Activity
[8] = Toxicity in human RBC assessed as hemolysis at 16 ug/ml after 2 hrs; type: cell-based, Erythrocyte; conditions: red blood cells (RBC), read-out: Activity
[9] = Toxicity in human RBC assessed as hemolysis at 2 ug/ml after 2 hrs; type: cell-based, Erythrocyte; conditions: red blood cells (RBC), read-out: Activity
Bacillus subtilis [10] = test: Inhibition of protein synthesis in Bacillus subtilis assessed as incorporation of [3H]amino acid at 8 ug/mL by LKB Betaplate scintillation counter relative to control; type: functional; set-up: scale not given: the % may be the effect or the level left
Bacillus subtilis [11] = test: Inhibition of DNA synthesis in Bacillus subtilis assessed as [3H]thymidine uptake at 8 ug/mL by LKB Betaplate scintillation counter relative to control; type: functional; set-up: scale not given: the % may be the effect or the level left
Bacillus subtilis [12] = test: Inhibition of RNA synthesis in Bacillus subtilis assessed as [3H]uridine uptake at 8 ug/mL by LKB Betaplate scintillation counter relative to control; type: functional; set-up: scale not given: the % may be the effect or the level left
Bacillus subtilis [13] = test: Inhibition of DNA synthesis in Bacillus subtilis assessed as incorporation of [3H]thymidine at 8 ug/mL by LKB Betaplate scintillation counter relative to control; type: functional; set-up: scale not given: the % may be the effect or the level left
Bacillus subtilis [14] = test: Inhibition of RNA synthesis in Bacillus subtilis assessed as incorporation of [3H]uridine at 8 ug/mL by LKB Betaplate scintillation counter relative to control; type: functional; set-up: scale not given: the % may be the effect or the level left
Bacillus subtilis [15] = test: Inhibition of protein synthesis in Bacillus subtilis assessed as [3H]amino acid uptake at 8 ug/mL by LKB Betaplate scintillation counter relative to control; type: functional; set-up: scale not given: the % may be the effect or the level left

| SMILES | MIC (Bacillus subtilis [1]) [µg/mL] | MIC (Staphylococcus aureus [2]) [µg/mL] | MIC (Escherichia coli) [µg/mL] | MIC (Staphylococcus aureus [3]) [µg/mL] | further results |
| --- | --- | --- | --- | --- | --- |
| CC1(C)S[C@@H]2[C@H](NC(=O)Cc3ccccc3)C(=O)N2[C@H]1C(=O)O [PENICILLIN G] | 0.03 (≈ 0.0897 µM) | 128 (≈ 383 µM) | 1 (≈ 2.99 µM) | 0.03 (≈ 0.0897 µM) |  |
| CC(C)c1ccc2c(c1)CC[C@H]1[C@](C)(C(=O)O)CCC[C@]21C [DEHYDROABIETIC ACID] | 32 (≈ 107 µM) | 32 (≈ 107 µM) | 128 (≈ 426 µM) | 16 (≈ 53.3 µM) |  |
| C[C@H]1[C@H](C)CC[C@]2(C(=O)O)CC[C@]3(C)C(=CC[C@@H]4[C@@]5(C)CC[C@@H](O)C(C)(C)[C@@H]5CC[C@]43C)[C@H]12 | 64 (≈ 140 µM) |  | > 128 | > 128 |  |
| C[C@@H]1[C@H](O)[C@@H](C)/C=C/C=C/C=C/C=C/C=C/C=C/C=C/[C@H](O[C@@H]2O[C@H](C)[C@@H](O)[C@H](N)[C@@H]2O)C[C@@H]2O[C@](O)(C[C@@H](O)C[C@@H](O)[C@H](O)CC[C@@H](O)C[C@@H](O)CC(=O)O[C@H]1C)C[C@H](O)[C@H]2C(=O)O [AMPHOTERICIN B] |  |  |  |  | hemolysis at 2 h, 8 ug/ml [4]: 96.9%; hemolysis at 2 h, 0.5 ug/ml [5]: 0%; hemolysis at 2 h, 4 ug/ml [6]: 74.6%; hemolysis at 2 h, 1 ug/ml [7]: 9.7%; hemolysis at 2 h, 16 ug/ml [8]: 118%; hemolysis at 2 h, 2 ug/ml [9]: 27.5% |
| C=C[C@]1(C)CC=C2C(CC[C@@H]3[C@](C)(C(=O)O)CCC[C@@]23C)C1 (some centres not stated) | 32 (≈ 106 µM) | 32 (≈ 106 µM) | > 128 | 16 (≈ 52.9 µM) |  |
| O=C(N[C@H](CO)[C@H](O)c1ccc([N+](=O)[O-])cc1)C(Cl)Cl [CHLORAMPHENICOL] |  |  |  |  | Activity (Bacillus subtilis [10]): 10%; Activity (Bacillus subtilis [11]): 74%; Activity (Bacillus subtilis [12]): 141%; Activity (Bacillus subtilis [13]): 80%; Activity (Bacillus subtilis [14]): 166%; Activity (Bacillus subtilis [15]): 83% |
